Laboratory results from patent publication US5985968A, “Surface tension reduction with N,N-dialkyl ureas” (Air Products and Chemicals, Inc., priority 1997, dated 1999).
Values after ≈ are worked out from the molar mass of the structure shown. One block for each compound: values may come before it.

Experiments:
Assay type in all cases: physicochemical
[1] = Dynamic surface tension of aqueous solutions, maximum-bubble-pressure method; conditions: for Dynamic Surface Tension: about 23° C.; for Surface tension reduction (in words): summary of dynamic surface tension data
Excerpt: This invention relates to the use of compounds of the formula [drawing 3] where R1 and R2 are independently C1 to C6 alkyl or cycloalkyl with the total number of carbons in R and R' being 6-12 for the reduction of equilibrium and dynamic surface tension in water-based formulations containing an organic compound, particularly coating, ink, and agricultural formulations. […] The maximum-bubble-pressure method of measuring surface tension is described in Langmuir 1986, 2, 428-432, which is incorporated by reference.
In the following examples dynamic surface tension data were generated for aqueous solutions of the indicated compounds using the maximum-bubble-pressure method at the indicated bubble rates, i.e., bubbles/second (b/s), and room temperature of about 23° C. The equipment used was a Kruss BP 2 bubble pressure tensiometer.
(§1) A saturated solution in distilled water of N,N'-di-n-butylurea was prepared by placing 0.1 g of the urea into 99.9 g of water and shaking the mixture for 1-2 h. […] The solids were removed by filtration, and the dynamic surface tension of the resulting solution was measured using the maximum bubble pressure method at bubble rates from 0.1 to 20 b/s. […] In practical terms, high bubble rates correspond to high printing speeds in lithographic or ink-jet printing, high spray or roller velocities in coating applications, and rapid application rates for agricultural products.
Aqueous solutions of N,N-dibutylurea were prepared and their surface tensions were measured using the procedure described above.

[2] = Solubility in water (saturated solution / solubility limit); conditions: for dissolution (in words): 0.1 g urea in 99.9 g water, shaken 1-2 h; for solubility thermodynamic: saturated solution in distilled water, solids filtered off, read-out: Concentration of saturated solution
Description: (§2) A series of aqueous solutions of various concentrations of n-octylurea [Pfaltz & Bauer] was prepared by placing the urea into water and shaking the mixture for 1-2 h. All of the urea dissolved in the low concentration samples. Undissolved urea in some of the higher concentration samples was remove by filtration. Surface tensions of these solutions were measured using the Wilheimy plate technique. This method provides equilibrium surface tension values. Equilibrium values are always equal to or lower than those obtained under dynamic conditions.
as §1
A saturated solution in distilled water of N,N-di-(2-ethylhexyl)urea was prepared by placing 0.1 g of the urea into 99.9 g of water and shaking the mixture for 1-2 h. […] The solids were removed by filtration, and the surface tension of the resulting solution was measured as described above.
Similarly, a saturated solution in distilled water of N,N-di-n-octylurea was prepared by placing 0.1 g of the urea into 99.9 g of water and shaking the mixture for 1-2 hr. […] The solids were removed by filtration, and the surface tension of the resulting solution was measured as described above.
A saturated solution in distilled water of N,N-di-n-hexylurea was prepared by placing 0.1 g of the urea into 99.9 g of water and shaking the mixture for 1-2 h. […] The solids were removed by filtration, and the surface tension of the resulting solution was measured as described above.

[3] = Foaming properties of 0.1 wt % solution, procedure based upon ASTM D 1173-53
Description: The foaming properties of a 0.1 wt % solution of N,N-dibutylurea, N,N-dipentyl-urea, and N,N-dihexylurea were examined using a procedure based upon ASTM D 1173-53. In this test, a 0.1 wt % solution of the surfactant is added from an elevated foam pipette to a foam receiver containing the same solution. The foam height is measured at the completion of the addition ("Initial Foam Height") and the time required for the foam to dissipate is recorded ("Time to 0 Foam"). This test provides a comparison between the foaming characteristics of various surfactant solutions. In general, in coatings, inks, and agricultural formulations, foam is undesirable because is complicates handling and can lead to coating and print defects, and to inefficient application of agricultural materials.

[4] = Equilibrium surface tension of aqueous solutions, Wilhelmy plate technique
Description: as §2

Compound: CCCCC(CC)CN(CC(CC)CCCC)C(N)=O (stereo not shown) [N,N-Di-(2-ethylhexyl)urea, N,N-di-(2-ethylhexyl)urea, reference compound]
- Dynamic Surface Tension ([1]; saturated (<0.1 wt %), 0.1 b/s): 60.1 dyne/cm
- Dynamic Surface Tension ([1]; saturated (<0.1 wt %), 1 b/s): 69.2 dyne/cm
- Dynamic Surface Tension ([1]; saturated (<0.1 wt %), 6 b/s): 69.6 dyne/cm
- Dynamic Surface Tension ([1]; saturated (<0.1 wt %), 15 b/s): 69.3 dyne/cm
- Dynamic Surface Tension ([1]; saturated (<0.1 wt %), 20 b/s): 68.1 dyne/cm
- dissolution (in words) [2]: Most of the urea remained undissolved
- solubility thermodynamic [2]: < 1000 µg/mL

Compound: CCCCNC(=O)NCCCC [N,N'-Di-n-butylurea, N,N'-di-n-butylurea, reference compound]
- Dynamic Surface Tension ([1]; saturated (<0.1 wt %), 0.1 b/s): 59.0 dyne/cm
- Dynamic Surface Tension ([1]; saturated (<0.1 wt %), 1 b/s): 59.6 dyne/cm
- Dynamic Surface Tension ([1]; saturated (<0.1 wt %), 6 b/s): 60.2 dyne/cm
- Dynamic Surface Tension ([1]; saturated (<0.1 wt %), 15 b/s): 60.6 dyne/cm
- Dynamic Surface Tension ([1]; saturated (<0.1 wt %), 20 b/s): 60.9 dyne/cm
- dissolution (in words) [2]: Most of the N,N'-di-n-butylurea remained undissolved
- solubility thermodynamic [2]: < 1000 µg/mL

Compound: CCCCCCCCN(CCCCCCCC)C(N)=O [N,N-Di-n-octylurea, N,N-di-n-octylurea, reference compound]
- Dynamic Surface Tension ([1]; saturated (<0.1 wt %), 0.1 b/s): 52.9 dyne/cm
- Dynamic Surface Tension ([1]; saturated (<0.1 wt %), 1 b/s): 69.8 dyne/cm
- Dynamic Surface Tension ([1]; saturated (<0.1 wt %), 6 b/s): 71.1 dyne/cm
- Dynamic Surface Tension ([1]; saturated (<0.1 wt %), 15 b/s): 70.3 dyne/cm
- Dynamic Surface Tension ([1]; saturated (<0.1 wt %), 20 b/s): 69.4 dyne/cm
- dissolution (in words) [2]: Most of the urea remained undissolved
- solubility thermodynamic [2]: < 1000 µg/mL

Compound: CCCN(CCC)C(N)=O [N,N-Di-n-propylurea, N,N-di-n-propylurea]
- Dynamic Surface Tension ([1]; 0.5 wt %, 0.1 b/s): 53.8 dyne/cm
- Dynamic Surface Tension ([1]; 0.5 wt %, 1 b/s): 54.0 dyne/cm
- Dynamic Surface Tension ([1]; 0.5 wt %, 6 b/s): 54.3 dyne/cm
- Dynamic Surface Tension ([1]; 0.5 wt %, 15 b/s): 53.8 dyne/cm
- Dynamic Surface Tension ([1]; 0.5 wt %, 20 b/s): 53.7 dyne/cm
- Dynamic Surface Tension ([1]; 2.0 wt %, 0.1 b/s): 43.4 dyne/cm
- Dynamic Surface Tension ([1]; 2.0 wt %, 1 b/s): 43.6 dyne/cm
- Dynamic Surface Tension ([1]; 2.0 wt %, 6 b/s): 43.9 dyne/cm
- Dynamic Surface Tension ([1]; 2.0 wt %, 15 b/s): 44.4 dyne/cm
- Dynamic Surface Tension ([1]; 2.0 wt %, 20 b/s): 44.5 dyne/cm
- Dynamic Surface Tension ([1]; 4.0 wt %, 0.1 b/s): 39.0 dyne/cm
- Dynamic Surface Tension ([1]; 4.0 wt %, 1 b/s): 39.1 dyne/cm
- Dynamic Surface Tension ([1]; 4.0 wt %, 6 b/s): 39.3 dyne/cm
- Dynamic Surface Tension ([1]; 4.0 wt %, 15 b/s): 39.5 dyne/cm
- Dynamic Surface Tension ([1]; 4.0 wt %, 20 b/s): 39.6 dyne/cm
- Surface tension reduction (in words) [1]: reasonably effective at reducing the surface tension of water

Compound: CCCCCCN(CCCCCC)C(N)=O [N,N-Di-n-hexylurea, N,N-di-n-hexylurea]
- Initial Foam Height [3]: 1.0 cm
- Time to 0 Foam [3]: 2 s
- Dynamic Surface Tension ([1]; saturated (<0.1 wt %), 0.1 b/s): 34.7 dyne/cm
- Dynamic Surface Tension ([1]; saturated (<0.1 wt %), 1 b/s): 42.8 dyne/cm
- Dynamic Surface Tension ([1]; saturated (<0.1 wt %), 6 b/s): 56.8 dyne/cm
- Dynamic Surface Tension ([1]; saturated (<0.1 wt %), 15 b/s): 63.7 dyne/cm
- Dynamic Surface Tension ([1]; saturated (<0.1 wt %), 20 b/s): 62.4 dyne/cm
- dissolution (in words) [2]: Most of the N,N-di-n-hexylurea remained undissolved
- solubility thermodynamic [2]: < 1000 µg/mL

Continued, in another order:

- Initial Foam Height [3]: 3.0 cm
- Time to 0 Foam [3]: 5 s
- Dynamic Surface Tension ([1]; 0.3 wt %, 0.1 b/s): 42.9 dyne/cm
- Dynamic Surface Tension ([1]; 0.3 wt %, 1 b/s): 43.1 dyne/cm
- Dynamic Surface Tension ([1]; 0.3 wt %, 6 b/s): 43.4 dyne/cm
- Dynamic Surface Tension ([1]; 0.3 wt %, 15 b/s): 43.4 dyne/cm
- Dynamic Surface Tension ([1]; 0.3 wt %, 20 b/s): 43.6 dyne/cm
- Dynamic Surface Tension ([1]; 1.0 wt %, 0.1 b/s): 32.7 dyne/cm
- Dynamic Surface Tension ([1]; 1.0 wt %, 1 b/s): 32.9 dyne/cm
- Dynamic Surface Tension ([1]; 1.0 wt %, 6 b/s): 33.2 dyne/cm
- Dynamic Surface Tension ([1]; 1.0 wt %, 15 b/s): 33.8 dyne/cm
- Dynamic Surface Tension ([1]; 1.0 wt %, 20 b/s): 34.1 dyne/cm
- Dynamic Surface Tension ([1]; 1.5 wt %, 0.1 b/s): 28.2 dyne/cm
- Dynamic Surface Tension ([1]; 1.5 wt %, 1 b/s): 28.3 dyne/cm
- Dynamic Surface Tension ([1]; 1.5 wt %, 6 b/s): 28.5 dyne/cm
- Dynamic Surface Tension ([1]; 1.5 wt %, 15 b/s): 29.1 dyne/cm
- Dynamic Surface Tension ([1]; 1.5 wt %, 20 b/s): 29.5 dyne/cm
- Dynamic Surface Tension ([1]; 1.5 wt %, 20 b/s, listed as N,N-dibutylurea): below 30 dyne/cm
Compound: CCCCN(CCCC)C(N)=O [N,N-Dibutylurea, N,N-dibutylurea]
- Surface tension reduction (in words) [1]: highly effective at reducing the surface tension of water

- Dynamic Surface Tension ([1]; 1.0 wt %, 0.1 b/s): 51.9 dyne/cm
- Dynamic Surface Tension ([1]; 1.0 wt %, 1 b/s): 52.4 dyne/cm
- Dynamic Surface Tension ([1]; 1.0 wt %, 6 b/s): 52.9 dyne/cm
- Dynamic Surface Tension ([1]; 1.0 wt %, 15 b/s): 53.2 dyne/cm
- Dynamic Surface Tension ([1]; 1.0 wt %, 20 b/s): 53.2 dyne/cm
- Dynamic Surface Tension ([1]; 2.5 wt %, 0.1 b/s): 44.1 dyne/cm
- Dynamic Surface Tension ([1]; 2.5 wt %, 1 b/s): 44.6 dyne/cm
- Dynamic Surface Tension ([1]; 2.5 wt %, 6 b/s): 45.1 dyne/cm
- Dynamic Surface Tension ([1]; 2.5 wt %, 15 b/s): 45.6 dyne/cm
- Dynamic Surface Tension ([1]; 2.5 wt %, 20 b/s): 45.8 dyne/cm
Compound: CN(C(N)=O)C1CCCCC1 [N-cyclohexyl-N-methylurea]
- Surface tension reduction (in words) [1]: reasonably effective at reducing the surface tension of water

- Initial Foam Height [3]: 1.5 cm
- Time to 0 Foam [3]: 3 s
- Dynamic Surface Tension ([1]; 0.1 wt %, 0.1 b/s): 36.3 dyne/cm
- Dynamic Surface Tension ([1]; 0.1 wt %, 1 b/s): 37.1 dyne/cm
- Dynamic Surface Tension ([1]; 0.1 wt %, 6 b/s): 38.7 dyne/cm
- Dynamic Surface Tension ([1]; 0.1 wt %, 15 b/s): 40.7 dyne/cm
- Dynamic Surface Tension ([1]; 0.1 wt %, 20 b/s): 41.3 dyne/cm
- Dynamic Surface Tension ([1]; 0.2 wt %, 0.1 b/s): 32.8 dyne/cm
- Dynamic Surface Tension ([1]; 0.2 wt %, 1 b/s): 33.4 dyne/cm
- Dynamic Surface Tension ([1]; 0.2 wt %, 6 b/s): 34.6 dyne/cm
- Dynamic Surface Tension ([1]; 0.2 wt %, 15 b/s): 36.2 dyne/cm
- Dynamic Surface Tension ([1]; 0.2 wt %, 20 b/s): 36.3 dyne/cm
- Dynamic Surface Tension ([1]; 0.3 wt %, 0.1 b/s): 30.9 dyne/cm
- Dynamic Surface Tension ([1]; 0.3 wt %, 1 b/s): 31.5 dyne/cm
- Dynamic Surface Tension ([1]; 0.3 wt %, 6 b/s): 32.4 dyne/cm
- Dynamic Surface Tension ([1]; 0.3 wt %, 15 b/s): 32.9 dyne/cm
- Dynamic Surface Tension ([1]; 0.3 wt %, 20 b/s): 33.1 dyne/cm
- solubility limit ([2]; in water): 0.3 wt %
Compound: N,N-dipentylurea

- solubility ([2]; in water): 100 µg/mL (≈ 0.58 mM)
- Equilibrium surface tension ([4]; 0.0001 wt % in water): 72.2 dyne/cm
- Equilibrium surface tension ([4]; 0.0005 wt % in water): 72.1 dyne/cm
- Equilibrium surface tension ([4]; 0.001 wt % in water): 72.0 dyne/cm
- Equilibrium surface tension ([4]; 0.003 wt % in water): 68.9 dyne/cm
- Equilibrium surface tension ([4]; 0.005 wt % in water): 62.4 dyne/cm
- Equilibrium surface tension ([4]; 0.007 wt % in water): 60.0 dyne/cm
- Equilibrium surface tension ([4]; 0.009 wt % in water): 57.0 dyne/cm
- Equilibrium surface tension ([4]; 0.015 wt % in water): 57.1 dyne/cm
- Equilibrium surface tension ([4]; 0.03 wt % in water): 55.5 dyne/cm
- Equilibrium surface tension ([4]; 0.06 wt % in water): 57.1 dyne/cm
- lowest surface tension which can be obtained for an aqueous solution ([4]; limiting value from Table 1 data): about 56 dyne/cm
Compound: CCCCCCCCNC(N)=O [N-Octylurea, n-octylurea]
